Measurements as given in US6905680B2, “Methods of treating HIV infected subjects” (Genetics Institute, Inc., priority 1994, dated 2005).

How the values were obtained:
[1] = system: CD28-induced IL-2 production; settings: cited from earlier work
CD4^+ T cells [2] = assay: Long term growth of CD4+ T cells with coated beads (Example 19); assay type: cell-based, human; settings: CD4 and CD8^+ T cells
Procedure: CD28^+ T cells were divided into the CD4 and CD8^+ T cell subsets as described in Example 13. […] No cytokine or feeder cells were added to these cultures, and the cultures were maintained as described in Example 1.

CD28^+ T cells = assay: Lymphokine production by CD28+ T cells, ELISA 24 h (Table 3); assay type: cell-based, human; settings: no CHO cells
Procedure: All values were assessed by using dilutions of culture supernatant that yielded read-outs within the linear portion of the standard curve. The cytokine production data is summarized below in Table 3.

CD4^+ T cells [3] = assay: Lymphokine production by CD4+ T cells (Table 4); assay type: cell-based, human
Source text: (§1) To assess whether distinct T cell subsets might differentially respond to B7-1 or B7-2, CD28^+ T cells were divided into CD28^+CD4^+ and CD28^+CD8^+cells and into CD4^+CD45RO^+ and CD4^+CD45RA+subsets. To obtain CD28^+CD4^+ or CD28^+CD8^+ T cells, the CD28^+ T cells were subjected to a second round of negative selection using magnetic beads (Dynal) coated with CD8 or CD4 mAb as described in June et al. (1989) J. Immunol. 143:153. CD4^+CD45RO^+ and CD4^+CD45RA^+ subpopulations were isolated by subjecting CD28^+ T cells to negative selection using magnetic beads and anti-CD45RO monoclonal antibody UCHL1 or anti-CD45RA monoclonal antibody ALB11 (Immuntech). […]

CD8^+ T cells = assay: Lymphokine production by CD8+ T cells (Table 4); assay type: cell-based, human
Source text: as §1

human CD28 = biological target: T1, human CD28 (human, UniProt P10747 19-220); assay: immunofluorescence on Jurkat cells (CD28+ CTLA4-)
T1 construct: whole, on cells; also called CD28 on CHO-hh (CHO-HH) cells; CD28 on Jurkat #7 cells

Molecule: CO[C@H]1[C@@H](OC)C[C@H](C)[C@@H](OC)C2=CC(=O)C=C(NC(=O)/C(C)=C/C=C\[C@H](OC)[C@@H](OC(N)=O)/C(C)=C/[C@@H]1C)C2=O [herbimycin A]
- effect on CD28-induced IL-2 production [1]: can inhibit

Molecule: OKT3 only: beads coated with OKT3 alone
- time to death of the cells (CD4^+ T cells [2]): ≤ 1 week

Molecule: αCD3 only: plastic immobilized anti-CD3 mAb (OKT3) alone
- GM-CSF (CD28^+ T cells): 280 pg/mL
- IFN-γ (CD28^+ T cells): 280 pg/mL
- IL-2 (CD28^+ T cells): <60 pg/mL
- IL-4 (CD28^+ T cells): <20 pg/mL
- TNFα (CD28^+ T cells): 380 pg/mL
- GM-CSF (CD4^+ T cells [3]): 9770 pg/mL
- IFN-γ (CD4^+ T cells [3]): 1270 pg/mL
- IL-2 (CD4^+ T cells [3]): 93 pg/mL
- GM-CSF (CD8^+ T cells): 8900 pg/mL
- IFN-γ (CD8^+ T cells): 1620 pg/mL
- IL-2 (CD8^+ T cells): 133 pg/mL

B1: human B7-2Ig fusion protein (Fc fusion)
chain: APLKIQAYFNETADLPCQFANSQNQSLSELVVFWQDQENLVLNEVYLGKEKFDSVHSKYMGRTSFDSDSWTLRLHNLQIKDKGLYQCIIHHKKPTGMIRIHQMNSELSVLANFSQPEIVPISNITENVYINLTCSSIHGYPEPKKMSVLLRTKNSTIEYDGIMQKSQDNVTELYDVSISLSVSFPDVTSNMTIFCILETDKTRLLSSPFSIELEDPQPPPDH
notes: not shown: Fc portion of human IgG1
- binding result (human CD28): binds
